Measured values as given in the supplement of paper PMC10307832.

The cell lines below were run with C1=CC2=C(C=C(C(=C2N=C1)O)N=NC3=CC4=C(C=C3)C=C(C=C4)S(=O)(=O)O)S(=O)(=O)O + Cc1nc(Nc2ncc(C(=O)Nc3c(C)cccc3Cl)s2)cc(N2CCN(CCO)CC2)n1 [Dasatinib] (partner 0.075 µM) (assay: relative viability (nuclei count vs DMSO), 5 days (fraction); higher = more cells survive). Details: first compound 0.08 µM.
Summary of the method: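 Nuclei were stained with Hoechst during a one-step fixation (final 0.05% Triton X-100, 1% formaldehyde, 1 ug/ml Hoechst) carried out 5 days after dosing, then counted on 4× images. The cells, lung cancer lines in 1536-well plates, had been dosed by pin tool the day after seeding with one drug alone or a fixed anchor-drug dose plus five library-drug doses (not always all listed) in √10 steps. Relative viability is the nuclei count in treated wells divided by that in vehicle wells, and each value is the median of duplicate plates.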

Cell Line | relative viability
NCI-H322M | 0.252
LCLC-97TM1 | 0.705
NCI-H2009 | 0.261
A-427 | 0.68
NCI-H441 | 0.574
NCI-H661 | 0.938
NCI-H1734 | 0.583
NCI-H460 | 0.515
NCI-H2347 | 0.317
SK-LU-1 | 0.2
NCI-H1395 | 0.386
201T | 0.627
NCI-H1915 | 0.311
HCC-827 | 0.306
LXF-289 | 0.196
NCI-H23 | 0.922
NCI-H647 | 0.212

Cell Line | relative viability
CAL-12T | 0.325
NCI-H1651 | 0.451
EPLC-272H | 0.408
NCI-H2228 | 0.639
NCI-H1355 | 0.764
NCI-H3122 | 0.954
NCI-H1437 | 0.351
NCI-H1755 | 0.483
NCI-H2023 | 0.689
HCC-15 | 0.684
NCI-H1793 | 0.372
PC-14 | 0.257
EKVX | 0.314
LC-2-ad | 0.799
NCI-H1944 | 0.222
NCI-H1975 | 0.388

Same assay, conditions: first compound 0.253 µM

Cell Line | relative viability
NCI-H322M | 0.251
LCLC-97TM1 | 0.842
NCI-H2009 | 0.275
A-427 | 0.634
NCI-H441 | 0.587
NCI-H661 | 0.877
NCI-H1734 | 0.346
NCI-H460 | 0.536
NCI-H2347 | 0.316
SK-LU-1 | 0.177
NCI-H1395 | 0.433
201T | 0.56
NCI-H1915 | 0.321
HCC-827 | 0.294
LXF-289 | 0.215
NCI-H23 | 0.877
NCI-H647 | 0.169

Cell Line | relative viability
CAL-12T | 0.361
NCI-H1651 | 0.3
EPLC-272H | 0.313
NCI-H2228 | 0.469
NCI-H1355 | 0.754
NCI-H3122 | 0.741
NCI-H1437 | 0.402
NCI-H1755 | 0.475
NCI-H2023 | 0.622
HCC-15 | 0.551
NCI-H1793 | 0.403
PC-14 | 0.288
EKVX | 0.648
LC-2-ad | 0.593
NCI-H1944 | 0.244
NCI-H1975 | 0.356

Same assay, conditions: first compound 0.8 µM

Cell Line | relative viability
NCI-H322M | 0.234
LCLC-97TM1 | 0.691
NCI-H2009 | 0.288
A-427 | 0.64
NCI-H441 | 0.568
NCI-H661 | 0.903
NCI-H1734 | 0.428
NCI-H460 | 0.492
NCI-H2347 | 0.333
SK-LU-1 | 0.212
NCI-H1395 | 0.45
201T | 0.584
NCI-H1915 | 0.29
HCC-827 | 0.244
LXF-289 | 0.205
NCI-H23 | 0.702
NCI-H647 | 0.151

Cell Line | relative viability
CAL-12T | 0.383
NCI-H1651 | 0.416
EPLC-272H | 0.333
NCI-H2228 | 0.464
NCI-H1355 | 0.708
NCI-H3122 | 0.716
NCI-H1437 | 0.43
NCI-H1755 | 0.455
NCI-H2023 | 0.558
HCC-15 | 0.609
NCI-H1793 | 0.364
PC-14 | 0.296
EKVX | 0.556
LC-2-ad | 0.555
NCI-H1944 | 0.201
NCI-H1975 | 0.343

Same assay, conditions: first compound 2.53 µM

Cell Line | relative viability
NCI-H322M | 0.27
LCLC-97TM1 | 0.779
NCI-H2009 | 0.313
A-427 | 0.775
NCI-H441 | 0.59
NCI-H661 | 0.93
NCI-H1734 | 0.44
NCI-H460 | 0.489
NCI-H2347 | 0.343
SK-LU-1 | 0.167
NCI-H1395 | 0.397
201T | 0.619
NCI-H1915 | 0.316
HCC-827 | 0.261
LXF-289 | 0.208
NCI-H23 | 0.95
NCI-H647 | 0.143

Cell Line | relative viability
CAL-12T | 0.518
NCI-H1651 | 0.406
EPLC-272H | 0.366
NCI-H2228 | 0.514
NCI-H1355 | 0.77
NCI-H3122 | 0.882
NCI-H1437 | 0.383
NCI-H1755 | 0.433
NCI-H2023 | 0.648
HCC-15 | 0.584
NCI-H1793 | 0.367
PC-14 | 0.31
EKVX | 0.743
LC-2-ad | 0.548
NCI-H1944 | 0.212
NCI-H1975 | 0.4

Same assay, conditions: first compound 8 µM

Cell Line | relative viability
NCI-H322M | 0.274
LCLC-97TM1 | 0.865
NCI-H2009 | 0.283
A-427 | 0.751
NCI-H441 | 0.679
NCI-H661 | 0.817
NCI-H1734 | 0.48
NCI-H460 | 0.522
NCI-H2347 | 0.247
SK-LU-1 | 0.172
NCI-H1395 | 0.43
201T | 0.677
NCI-H1915 | 0.314
HCC-827 | 0.272
LXF-289 | 0.229
NCI-H23 | 0.927
NCI-H647 | 0.194
CAL-12T | 0.434
NCI-H1651 | 0.466
EPLC-272H | 0.418
NCI-H2228 | 0.49
NCI-H1355 | 0.665
NCI-H3122 | 0.0807
NCI-H1437 | 0.301
